Reference: patent US20110092367A1, “Herbicidal Compositions Comprising 4-amino-3,6-dichloropyridine-2-carboxylic Acid” (BASF SE, priority 2008, published 2011)

Tests used:
[1] = system: Papaver rhoeas; assay: Field trial Example 2, combined application: PAPRH; format: in vivo
Description: (§1) Aminiopyralid was used as commercial aquaeous solution having an active ingredient concentration of 240 g/l (Milestone™). Metazachlor was used as a commercial suspension concentrate having an active ingredient concentration of 500 g/l (Butisan S®).
(§2) The evaluation for the damage on undesired weeds caused by the chemical compositions was carried out using a scale from 0 to 100%, compared to the untreated control plants. Here, 0 means no damage and 100 means complete destruction of the plants.
The value E, which is to be expected if the activity of the individual compounds is just additive, was calculated using the method of S. R. Colby (1967) “Calculating synergistic and antagonistic responses of herbicide combinations”, Weeds 15, p. 22 ff.
The performance of aminopyralid, applied as an alone treatment at […] and 15 g ai/ha, and the performance of metazachlor, applied as an alone treatment at 375 and 500 g ai/ha, as well as the mixtures of the both compounds have been assessed in winter oilseed rape field trials. The trials have been conducted in Germany at two locations.
Post emergence treatment was applied by means of fine distributed nozzels at the growth stage (GS/BBCH 11/12).

[2] = system: Matricaria inodora; assay: Field trial Example 1, successive application: damage on MATIN; format: in vivo
Description: as §1
The performance of aminopyralid applied as an alone treatment at 15, 30 and 50 g a.i./ha applied as an early post emergence treatment and an post emergence treatment in comparison to two different applications including metazachlor at 500 g a.i./ha as an early post emergence application in succession of aminopyralid as a post emergence application at 15 and 30 g a.i./ha was assessed in an oilseed rape field trials.
The early post emergence treatment was applied by means of fine distributed nozzles at the growth stage (GS) of the crop BBCH 11-12.
The post emergence treatment was applied by means of fine distributed nozzles at the growth stage (GS) of the crop BBCH 13-14.
The test period extended over the autumn and spring season (205 days).
In the following experiments, the herbicidal activity for the individual herbicide compounds (solo application) and of the herbicidal succession was assessed 4 times:
as §2

## Nc1cc(Cl)nc(C(=O)O)c1Cl [aminopyralid, 4-amino-3,6-dichloropyridine-2-carboxylic acid]
[1]; Aminopyralid 7.5 g ai/ha solo, 29 DAT
  % activity: 94%
[1]; Aminopyralid 7.5 g ai/ha solo, 72 DAT
  % activity: 88%
[1]; Aminopyralid 7.5 g ai/ha solo, 78 DAT
  % activity: 95%
[1]; Aminopyralid 15 g ai/ha solo, 28 DAT
  % activity: 92%
[1]; Aminopyralid 15 g ai/ha solo, 72 DAT
  % activity: 97%
[2]; 15 g ai/ha, treatment A early post emergence, DAT 25/DALT 10
  damage on MATIN: 97%
[2]; 15 g ai/ha, treatment A early post emergence, DAT 65/DALT 50
  damage on MATIN: 96%
[2]; 15 g ai/ha, treatment A early post emergence, DAT 176/DALT 161
  damage on MATIN: 100%
[2]; 15 g ai/ha, treatment B post emergence, DAT 25/DALT 10
  damage on MATIN: 88%
[2]; 15 g ai/ha, treatment B post emergence, DAT 65/DALT 50
  damage on MATIN: 88%
[2]; 15 g ai/ha, treatment B post emergence, DAT 176/DALT 161
  damage on MATIN: 98%
[2]; 30 g ai/ha, treatment A early post emergence, DAT 25/DALT 10
  damage on MATIN: 100%
[2]; 30 g ai/ha, treatment A early post emergence, DAT 65/DALT 50
  damage on MATIN: 98%
[2]; 30 g ai/ha, treatment A early post emergence, DAT 176/DALT 161
  damage on MATIN: 100%
[2]; 30 g ai/ha, treatment B post emergence, DAT 25/DALT 10
  damage on MATIN: 82%
[2]; 30 g ai/ha, treatment B post emergence, DAT 65/DALT 50
  damage on MATIN: 91%
[2]; 30 g ai/ha, treatment B post emergence, DAT 176/DALT 161
  damage on MATIN: 100%
[2]; 50 g ai/ha, treatment A early post emergence, DAT 25/DALT 10
  damage on MATIN: 100%
[2]; 50 g ai/ha, treatment A early post emergence, DAT 65/DALT 50
  damage on MATIN: 100%
[2]; 50 g ai/ha, treatment A early post emergence, DAT 176/DALT 161
  damage on MATIN: 100%
[2]; 50 g ai/ha, treatment B post emergence, DAT 25/DALT 10
  damage on MATIN: 88%
[2]; 50 g ai/ha, treatment B post emergence, DAT 65/DALT 50
  damage on MATIN: 94%
[2]; 50 g ai/ha, treatment B post emergence, DAT 176/DALT 161
  damage on MATIN: 98%
[2]; aminopyralid 15 g ai/ha, treatment A, DAT 205/DALT 190
  damage on MATIN: 100%
[2]; aminopyralid 15 g ai/ha, treatment B, DAT 205/DALT 190
  damage on MATIN: 100%
[2]; aminopyralid 30 g ai/ha, treatment A, DAT 205/DALT 190
  damage on MATIN: 100%
[2]; aminopyralid 30 g ai/ha, treatment B, DAT 205/DALT 190
  damage on MATIN: 100%
[2]; aminopyralid 50 g ai/ha, treatment A, DAT 205/DALT 190
  damage on MATIN: 100%
[2]; aminopyralid 50 g ai/ha, treatment B, DAT 205/DALT 190
  damage on MATIN: 100%
